Experimental data: US20260070887A1 (Shenzhen Zhongge Biological Technology Co., Ltd., priority 2022, published 2026)
Like-named read-outs stand apart in the source and are kept apart here.

How the values were obtained:
OVCAR-3 cells = assay: OVCAR-3 cell proliferation (Cell Titer-Glo, 10 days); assay type: cell-based, human
Method in brief: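 400 cells per well were seeded onto pre-dispensed compound (final 0.12 nM to 10 μM) in RPMI-1640 with 20% FBS and insulin, then co-cultured for 10 days. Viability was read as Cell Titer-Glo luminescence, inhibition was taken against 0.1% DMSO control, and IC50 came from nonlinear concentration-inhibition regression.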

HT-29 cells = assay: HT-29 cell proliferation (Cell Titer-Glo, 6 days); assay type: cell-based
Method in brief: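 Cells seeded at 4,170 cells/mL in McCoy's 5a with 10% FBS, compound added from DMSO stock, grown 6 days at 37 °C, 5% CO2. Cell Titer-Glo luminescence; inhibition vs 0.3% DMSO control, IC50 by nonlinear regression.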

HCT116 cells = assay: HCT116 cell anti-proliferation assay; assay type: cell-based; details: 6 days, Cell Titer-Glo
Procedure: HCT116 (ATCC, CCL-247) cells were cultured in McCoy's 5a complete medium (Gibco, 12330-031) containing 10% fetal bovine serum (Gibco, 10099-141C), 100 U penicillin and 100 μg/mL streptomycin (Gibco, 15140-122). The Promega kit Cell Titer-Glo (Promega: G7572) was used in this method for test.
HCT116 cells were cultured in T75 cell flasks (Corning, 430641) and the cells were placed in a 37° C., 5% CO2 incubator. Cells were passaged when reaching a cell density of 70%-80%, approximately twice per week. To perform the experiment, the test compounds were dissolved in DMSO to prepare a 10 mM stock solution, and the test compounds were added to the 384-well cell test plate (Corning, 3765) at the predetermined concentration (19.5 nM-[…]) using ECHO. […] cells were digested and 150 cells (60 μL medium) were seeded per well in the test plate. The 384-well plate was then centrifuged at 500 rpm for 1 minute, and then placed in a 37° C., 5% CO2 incubator for 6 days of cultivation. Six days later, the cell culture plate was equilibrated for 10 minutes at room temperature, 25 μL of Cell Titer-Glo was added to each well, and the mixture was shaken and mixed well and let stand for 5 minutes. The luminescence values for samples in various wells were read using a microplate reader in Luminescence mode.
The percentage of inhibition of cell proliferation by the test compound at each concentration was calculated by comparing with the values of the control group (0.2% DMSO). The IC50 values of the compounds were obtained by concentration-inhibition rate nonlinear regression analysis of the test compounds using GraphPad Prism 9.

Row | SMILES | IC50 (OVCAR-3 cells; Homo sapiens, OVCAR-3, 240 h) [nM] | IC50 (HT-29 cells; Homo sapiens, HT-29, 144 h) [nM] | IC50 (HCT116 cells; Homo sapiens, HCT-116, 144 h) [nM] | IC50 (OVCAR-3 cells) [nM] | IC50 (HT-29 cells) [nM] | IC50 (HCT116 cells) [nM]
1 | CC1(C)Cn2c(cc3c(NC(=O)c4ccc(NS(=O)(=O)CCO)cc4N4CCC5(CC4)CC5)cccc32)CO1 [Example 371, N-(3,3-dimethyl-3,4-dihydro-1H-[1,4]oxazino[4,3-a]indol-9-yl)-4-(2-hydroxyethylsulfonamido)-2-(6-azaspiro[2.5]octan-6-yl)benzamide] | ≤ 50 | ≤ 200 | > 10000 | – | – | –
2 | COc1ccc(NC(=O)c2ccc(NS(=O)(=O)CCO)cc2N2CCC3(CC2)CC3)c2cc3n(c12)CC(C)(C)OC3 [Example 455, 4-((2-hydroxyethyl)sulfonamido)-N-(6-methoxy-3,3-dimethyl-3,4-dihydro-1H-[1,4]oxazinyl[4,3-a]indol-9-yl)-2-(6-azaspiro[2.5]oct-6-yl)benzamide] | ≤ 50 | ≤ 200 | > 10000 | – | – | –
3 | CC1(C)OCCn2c1cc1c(NC(=O)c3ccc(NS(=O)(=O)CCO)cc3N3CCC(=C(F)F)CC3)cccc12 [Compound 395, 2-(4-(difluoromethylene)piperidin-1-yl)-N-(1,1-dimethyl-3,4-dihydro-1H-[1,4]oxazino[4,3-a]indol-9-yl)-4-((2-hydroxyethyl)sulfonamido)benzamide] | 50 to 500 | 200 to 1000 | > 10000 | – | – | –
4 | O=C(Nc1cccc2c1cc1n2CCOC1)c1ccc(NS(=O)(=O)CCO)cc1N1CCC2(CC1)CC2 [Example 235, N-(3,4-dihydro-1H-[1, 4]oxazino[4,3-a]indol-9-yl)-4-(2-hydroxyethylsulfonamido)-2-(6-azaspiro[2.5]octan-6-yl)benzamide] | ≤ 50 | ≤ 200 | > 10000 | – | – | –
5 | CC1(C)Cn2c(cc3c(NC(=O)c4ccc(NS(=O)(=O)CCO)cc4N4CCC(=C(F)F)CC4)cccc32)CO1 [Example 370, 2-(4-(difluoromethylene)piperidin-1-yl)-N-(3,3-dimethyl-3,4-dihydro-1H-[1,4]oxazino[4,3-a]indol-9-yl)-4-((2-hydroxyethyl)sulfonamido)benzamide] | ≤ 50 | 200 to 1000 | > 10000 | – | – | –
6 | N#Cc1ccc(NC(=O)c2ccc(NS(=O)(=O)CCO)cc2N2CCC(=C(F)F)CC2)c2cc3n(c12)CCOC3 [Example 364, N-(6-cyano-3,4-dihydro-1H-[1,4]oxazino[4,3-a]indol-9-yl)-2-(4-(difluoromethylene)piperidin-1-yl)-4-((2-hydroxyethyl)sulfonamido)benzamide] | 50 to 500 | 200 to 1000 | 8200 | – | – | –
7 | CC1(C)Cn2c(cc3c(NC(=O)c4ccc(NS(=O)(=O)CCO)cc4N4CCC(=C(F)F)CC4)ccc(C#N)c32)CO1 [Compound 393, N-(6-cyano-3,3-dimethyl-3,4-dihydro-1H-[1,4]oxazino[4,3-a]indol-9-yl)-2-(4-(difluoromethylene)piperidin-1-yl)-4-((2-hydroxyethyl)sulfonamido)benzamide] | 50 to 500 | ≤ 200 | > 10000 | – | – | –
8 | CC1(C)Cn2c(nc3c(NC(=O)c4ccc(NS(=O)(=O)CCO)cc4N4CCC5(CC4)CC5)cccc32)CO1 [Compound 391, N-(3,3-dimethyl-3,4-dihydro-1H-benzo[4,5]imidazo[2,1-c][1,4]oxazin-9-yl)-4-((2-hydroxyethyl)sulfonamido)-2-(6-azaspiro[2.5]octan-6-yl)benzamide] | ≤ 50 | ≤ 200 | > 10000 | – | – | –
9 | O=C(Nc1cccc2c1cc1n2CCC(F)(F)C1)c1ccc(NS(=O)(=O)CCO)cc1N1CCC(=C(F)F)CC1 [Example 374, N-(8,8-difluoro-6,7,8,9-tetrahydropyridino[1,2-a]indol-1-yl)-2-(4-(difluoromethylene)piperidin-1-yl)-4-((2-hydroxyethyl)sulfonamido)benzamide] | ≤ 50 | ≤ 200 | 8700 | – | – | –
10 | O=C(Nc1ccc(F)c2c1nc1n2CCOC1)c1ccc(NS(=O)(=O)CCO)cc1N1CCC2(CC1)CC2 [Example 308, N-(6-fluoro-3,4-dihydro-1H-benzo[4,5]imidazo[2,1-c][1,4]oxazin-9-yl)-4-((2-hydroxyethyl)sulfonamido)-2-(6-azaspiro[2.5]octan-6-yl)benzamide] | ≤ 50 | ≤ 200 | > 10000 | – | – | –
11 | O=C(Nc1ccc(F)c2c1cc1n2CCOC1)c1ccc(NS(=O)(=O)CCO)cc1N1CCC(=C(F)F)CC1 [Example 321, 2-(4-(difluoromethylene)piperidin-1-yl)-N-(6-fluoro-3,4-dihydro-1H-[1,4]oxazino[4,3-a]indol-9-yl)-4-((2-hydroxyethyl)sulfonamido)benzamide] | 50 to 500 | 200 to 1000 | > 10000 | – | – | –
12 | COc1ccc(NC(=O)c2ccc(NS(=O)(=O)CCO)cc2N2CCC(=C(F)F)CC2)c2cc3n(c12)CCOC3 [Compound 405, 2-(4-(difluoromethylene)piperidin-1-yl)-4-((2-hydroxyethyl)sulfonamido)-N-(6-methoxy-3,4-dihydro-1H-[1,4]oxazinyl[4,3-a]indol-9-yl)benzamide] | – | – | – | ≤ 50 | ≤ 200 | > 10000
13 | CNc1cc(NS(=O)(=O)CCO)cc(N2CCC3(CC2)CC3)c1C(=O)Nc1cc(C)nc(N2CCC(F)(F)CC2)n1 [Example 4, N-(2-(4,4-difluoropiperidin-1-yl)-6-methylpyrimidin-4-yl)-4-(2-hydroxyethylsulfonamide)-2-methylamino-6-(6-azaspiro[2.5]octan-6-yl)benzamide] | – | – | – | ≤ 50 | ≤ 200 | 2600
14 | COC1c2cc3c(NC(=O)c4ccc(NS(=O)(=O)CCO)cc4N4CCC5(CC4)CC5)cccc3n2CCC1(F)F (single isomer, unassigned) [Example 340-P2] | – | – | – | ≤ 50 | ≤ 200 | 8500
15 | CC1Cn2c(cc3c(NC(=O)c4ccc(NS(=O)(=O)CCO)cc4N4CCC5(CC4)CC5)cccc32)C(C)O1 (single isomer, unassigned) [Compound 312-P2A, N-(1,3-dimethyl-3,4-dihydro-1H-[1,4]oxazino[4,3-a]indol-9-yl)-4-((2-hydroxyethyl)sulfonamido)-2-(6-azaspiro[2.5]oct-6-yl)benzamide] | – | ≤ 200 | – | ≤ 50 | – | 6700
